Experiments:
Assay in all cases: relative viability (nuclei count vs DMSO), 5 days (fraction); higher = more cells survive
Selisistat + Vorinostat = compound: C1CC(C2=C(C1)C3=C(N2)C=CC(=C3)Cl)C(=O)N [Selisistat] + O=C(CCCCCCC(=O)Nc1ccccc1)NO [Vorinostat] (partner 1 µM)
Outline: (§1)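 Lung cancer cell lines, seeded in 1536-well plates, were treated the following day by pin tool with a single drug or with five library-drug doses (not always all listed) in √10 steps on top of a fixed anchor-drug dose. Cells were fixed and nuclei stained in one step after 5 days, and nuclei were counted. Relative viability is the nuclei count for treated wells divided by that for vehicle wells, reported as medians of duplicate plates.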

Serdemetan + Dasatinib = compound: c1ccc2c(CCNc3ccc(Nc4ccncc4)cc3)c[nH]c2c1 [Serdemetan] + Cc1nc(Nc2ncc(C(=O)Nc3c(C)cccc3Cl)s2)cc(N2CCN(CCO)CC2)n1 [Dasatinib] (partner 0.075 µM)
Outline: as §1

Serdemetan + Decitabine = compound: c1ccc2c(CCNc3ccc(Nc4ccncc4)cc3)c[nH]c2c1 [Serdemetan] + Nc1ncn([C@H]2C[C@H](O)[C@@H](CO)O2)c(=O)n1 [Decitabine] (partner 2 µM)
Outline: as §1

Serdemetan + Vorinostat = compound: c1ccc2c(CCNc3ccc(Nc4ccncc4)cc3)c[nH]c2c1 [Serdemetan] + O=C(CCCCCCC(=O)Nc1ccccc1)NO [Vorinostat] (partner 1 µM)
Outline: as §1

Cell Line	relative viability (Selisistat + Vorinostat; first compound 0.4 µM)	relative viability (Selisistat + Vorinostat; first compound 1.265 µM)	relative viability (Selisistat + Vorinostat; first compound 4 µM)	relative viability (Selisistat + Vorinostat; first compound 12.65 µM)	relative viability (Selisistat + Vorinostat; first compound 40 µM)	relative viability (Serdemetan + Dasatinib; first compound 0.04 µM)	relative viability (Serdemetan + Dasatinib; first compound 0.1265 µM)	relative viability (Serdemetan + Dasatinib; first compound 0.4 µM)	relative viability (Serdemetan + Dasatinib; first compound 1.265 µM)	relative viability (Serdemetan + Dasatinib; first compound 4 µM)	relative viability (Serdemetan + Decitabine; first compound 0.04 µM)	relative viability (Serdemetan + Decitabine; first compound 0.1265 µM)	relative viability (Serdemetan + Decitabine; first compound 0.4 µM)	relative viability (Serdemetan + Decitabine; first compound 1.265 µM)	relative viability (Serdemetan + Decitabine; first compound 4 µM)	relative viability (Serdemetan + Vorinostat; first compound 0.04 µM)	relative viability (Serdemetan + Vorinostat; first compound 0.1265 µM)	relative viability (Serdemetan + Vorinostat; first compound 0.4 µM)	relative viability (Serdemetan + Vorinostat; first compound 1.265 µM)	relative viability (Serdemetan + Vorinostat; first compound 4 µM)
LCLC-103H	0.824	0.908	0.747	0.803	0.953	0.466	0.434	0.539	0.331	0.482	0.73	0.663	0.426	0.587	0.687	0.759	0.852	0.773	0.75	0.779
EKVX	0.708	0.757		0.903	0.655	0.523	0.645		0.355	0.371	0.322	0.33			0.291	0.798	0.719		0.462	0.546
LXF-289	0.78	0.83	0.753	0.799	0.961	0.231	0.197	0.199	0.202	0.185	0.354	0.357	0.349	0.268	0.337	0.754	0.77	0.718	0.656	0.646
ABC-1	1.38	1.28		1.09	1.19	0.541	0.575	0.585	0.402	0.429	0.896	1.01	1.25	0.921	0.844	0.985	0.949	0.989	0.832	0.787
NCI-H650	0.396	0.438	0.632	0.481	0.548	0.424	0.449	0.451	0.35	0.43	0.321	0.331	0.321	0.24	0.262	0.352	0.478	0.51	0.405	0.46
NCI-H1650	0.578	0.533	0.704	0.726	0.67	0.297	0.345	0.272	0.34	0.268	0.408	0.435	0.411	0.422	0.266	0.406	0.663	0.518	0.291	0.42
NCI-H2085	0.908	0.855	0.714	0.828	0.84	0.242	0.222	0.278	0.269	0.166	0.541	0.582	0.485	0.324	0.374	0.761	0.776	0.695	0.484	0.524
NCI-H1793	0.899	0.679		0.88	0.781	0.355	0.308	0.383	0.21	0.259	0.46	0.449	0.361	0.219	0.231	0.808	0.671	0.439	0.286	0.397
LC-2-ad	0.769	0.704	0.774	0.806	0.764	0.495	0.634	0.519	0.501	0.475	0.795	0.727	0.679	0.714	0.634	0.71	0.683	0.673	0.646	0.638
COR-L 105	0.892	0.846	0.876	0.964	1.21	0.326	0.351	0.306	0.319	0.337	0.65	0.646	0.574	0.52	0.626	0.863	0.96	0.758	0.861	0.645
NCI-H1355	0.686	0.696	0.704	0.719	0.798	0.78	0.759	0.601	0.602	0.76	0.382	0.34	0.306	0.288	0.31	0.654	0.688	0.632	0.617	0.541
H3255	0.885	0.93	0.822	0.834	0.872	0.422	0.384	0.258	0.323	0.431	0.546	0.588		0.569	0.42	0.701	0.797		0.487	0.73
NCI-H1993	0.969	0.782		0.848	0.949	0.578	0.698	0.517	0.507	0.461	0.696	0.593	0.542	0.577	0.56	0.935	0.609	0.669	0.767	0.782
NCI-H1734	0.871	0.68	0.783	0.843	0.85	0.384	0.371	0.402	0.117	0.131	0.44	0.26	0.226	0.111	0.188	0.65	0.366	0.331	0.149	0.128
HOP-62	0.604	0.783	0.735	0.613	0.923	0.561	0.625	0.636	0.538	0.567	0.195	0.256	0.22	0.196	0.177	0.702	0.713	0.881	0.36	0.406
LOU-NH91	0.962	0.919	0.824	0.835	0.959	0.564	0.554	0.371	0.43	0.565	0.813	0.845			0.872	0.954	0.954			0.935
ChaGo-K-1	0.72	0.728	0.73	0.729	0.842	0.587	0.562	0.572	0.249	0.24	0.488	0.42	0.421	0.266	0.303	0.741	0.697	0.77	0.329	0.331
